Assay results as given in patent US10307413B2, “Tetrahydro- and dihydro-isoquinoline PRMT5 inhibitors and uses thereof” (Epizyme, Inc., priority 2013, dated 2019).
Where two headings read alike, the source gives them in different places.

Experiments:
[1] = system: symmetric di-methyl arginine in Z-138 cells; assay: Z-138 Methylation Assay (In Cell Western for symmetric di-methyl arginine and DNA content); assay type: cell-based; conditions: Homo sapiens, read-out: ICW EC50
Procedure, shortened: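 Z-138 cells (50,000 cells/mL) treated with compound 96 h at 37 °C, then fixed and stained for symmetric di-methyl arginine (800 nm) with DRAQ5 DNA counterstain (700 nm) on Licor Odyssey.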

Z-138 cell line = assay: Z-138 Proliferation Assay (Cell Titer Glo, 5 days); assay type: cell-based; conditions: Homo sapiens, 120 h, Z-138 cells, 5 days, read-out: Proliferation EC50
Procedure, shortened: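 Z-138 cells exposed 5 days at 37 °C, 5% CO2 to nine-point 3-fold dilutions (final top 20 μM, 0.2% DMSO), in triplicate. Viability read as ATP by CellTiter-Glo luminescence; IC50 from 4-parameter fit of normalized dose-response curves.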

PRMT5/MEP50 = PRMT5/MEP50 (Homo sapiens (Human), UniProt O14744); assay: PRMT5 Biochemical Assay (PRMT5/MEP50 enzyme assay on peptide substrate, 3H-SAM Flashplate)
Chain of PRMT5/MEP50 (O14744 other isoform, or with tags, fused parts or gaps): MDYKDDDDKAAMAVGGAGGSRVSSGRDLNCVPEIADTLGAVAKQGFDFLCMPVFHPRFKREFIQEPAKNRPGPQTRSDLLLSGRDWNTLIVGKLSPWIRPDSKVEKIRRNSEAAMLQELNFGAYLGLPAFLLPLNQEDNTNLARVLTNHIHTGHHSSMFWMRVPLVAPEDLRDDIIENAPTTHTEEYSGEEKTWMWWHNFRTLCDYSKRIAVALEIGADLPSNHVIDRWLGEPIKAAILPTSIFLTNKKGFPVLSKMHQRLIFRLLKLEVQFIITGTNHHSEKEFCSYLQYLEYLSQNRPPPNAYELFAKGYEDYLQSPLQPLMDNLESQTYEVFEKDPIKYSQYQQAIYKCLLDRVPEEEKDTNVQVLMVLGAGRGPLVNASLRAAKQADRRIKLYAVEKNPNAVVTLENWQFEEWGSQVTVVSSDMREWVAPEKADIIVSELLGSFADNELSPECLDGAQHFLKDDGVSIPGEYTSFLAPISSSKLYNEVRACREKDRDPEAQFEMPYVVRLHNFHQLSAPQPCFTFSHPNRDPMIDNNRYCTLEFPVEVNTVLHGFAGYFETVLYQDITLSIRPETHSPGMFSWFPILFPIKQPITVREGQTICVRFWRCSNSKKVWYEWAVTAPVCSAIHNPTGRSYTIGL
Chain of PRMT5/MEP50 (Q9BQA1 other isoform, or with tags, fused parts or gaps partner): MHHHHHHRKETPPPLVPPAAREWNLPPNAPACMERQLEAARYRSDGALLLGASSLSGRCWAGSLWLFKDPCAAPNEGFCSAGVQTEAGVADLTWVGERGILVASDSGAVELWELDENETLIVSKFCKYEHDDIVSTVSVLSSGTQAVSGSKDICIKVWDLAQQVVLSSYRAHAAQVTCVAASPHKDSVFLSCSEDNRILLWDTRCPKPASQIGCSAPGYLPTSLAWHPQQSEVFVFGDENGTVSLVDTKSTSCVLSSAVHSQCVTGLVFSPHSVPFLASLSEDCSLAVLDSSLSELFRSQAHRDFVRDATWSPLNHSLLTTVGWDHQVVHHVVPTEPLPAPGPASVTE
Procedure, shortened: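 Radiometric methylation of a biotin-tagged H4(1-15) peptide by human PRMT5/MEP50 from baculovirus/Sf9, with ³H-SAM incorporation read on streptavidin Flashplates. Buffer: Bicine pH 7.6, TCEP, BSG, Tween20; compound preincubated 30 min at 25 °C; stopped with 600 µM final unlabeled SAM. DMSO and SAH controls; IC50 from fitted % inhibition.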

| Compound | EC50 ([1]; In Cell Western methylation) [µM] | EC50 (Z-138 cell line; Cell Titer Glo) [µM] | IC50 (PRMT5/MEP50; PRMT5 biochemical assay) [µM] | EC50 [1] [µM] | EC50 (Z-138 cell line) [µM] | IC50 (PRMT5/MEP50) [µM] |
| --- | --- | --- | --- | --- | --- | --- |
| CCCC(=O)N1CC(Nc2cc(C(=O)NC[C@H](O)CN3CCc4ccccc4C3)ccn2)C1 [Compound 503] | < 0.1 | < 0.1 | < 0.1 |  |  |  |
| CC(=O)N1CCC(Oc2cncc(C(=O)NC[C@H](O)CN3CCc4ccccc4C3)c2)CC1 [Compound 304] |  |  |  | < 0.1 | 1 to 10 | < 0.1 |
| CN(C)C(=O)[C@H]1C[C@@H](Nc2cc(C(=O)NC[C@H](O)CN3CCc4ccccc4C3)ncn2)C1 [Compound 515] | < 0.1 | 0.101 to 1 | < 0.1 |  |  |  |
| CC(=O)N1CCN(c2nc(NC3CNC3)cc(C(=O)NC[C@H](O)CN3CCc4ccccc4C3)n2)CC1 [Compound 483] | < 0.1 | 1 to 10 | < 0.1 |  |  |  |
| CC1(C)c2ccccc2CCN1C[C@@H](O)CNC(=O)c1cc(NC2COC2)ncn1 [Compound 588] | > 1 | > 5 | 1 to 10 |  |  |  |
| CCN(C)[C@H]1CC[C@@H](Nc2cc(C(=O)NC[C@H](O)CN3CCc4ccccc4C3)ncn2)CC1 [Compound 631] | 0.101 to 1 | > 5 | < 0.1 |  |  |  |
| O=C(NC[C@H](O)CN1CCc2ccccc2C1)c1cnnc(OC2CCN(CC(F)(F)F)CC2)c1 [Compound 626] | 0.101 to 1 | 1 to 10 | 0.101 to 1 |  |  |  |
| CN1CCC(Oc2cc(C(=O)NC[C@H](O)CN3CCc4ccccc4C3)cnn2)CC1 [Compound 620] | 0.101 to 1 | 10 to 50 | < 0.1 |  |  |  |
| CNCCOc1ccc(C(=O)NC[C@H](O)CN2CCc3ccccc3C2)cc1 [Compound 386] |  |  |  | < 0.1 | 1 to 10 | < 0.1 |
| COCC(=O)N1CC(Nc2cc(C(=O)NC[C@H](O)CN3CCc4ccccc4C3)ncn2)C1 [Compound 531] | < 0.1 | 0.101 to 1 | < 0.1 |  |  |  |
| O=C(NC[C@H](O)CN1CCc2ccccc2C1)c1cc(NC2CCC2)nc(N2CCCCC2)c1 [Compound 375] |  |  |  | < 0.1 | 0.101 to 1 | < 0.1 |
| C[C@H](N1CC(Nc2cc(C(=O)NC[C@H](O)CN3CCc4ccccc4C3)ncn2)C1)C(F)(F)F [Compound 445] | < 0.1 | 1 to 10 | < 0.1 |  |  |  |
| O=C(NC[C@H](O)CN1CCc2ccccc2C1)c1ccnc(NC2CCN(C(=O)C3CC3)CC2)c1 [Compound 472] | < 0.1 | < 0.1 | < 0.1 |  |  |  |
| CCN(C)c1nc(NC2COC2)cc(C(=O)NC[C@H](O)CN2CCc3ccccc3C2)n1 [Compound 458] | < 0.1 | < 0.1 | < 0.1 |  |  |  |
| O=C(NC[C@H](O)CN1CCc2ccccc2C1)c1cc(NC2COC2)nc(N2CCCCC2)n1 [Compound 414] | < 0.1 | < 0.1 | < 0.1 |  |  |  |
| CCOc1nc(NC2CNC2)cc(C(=O)NC[C@H](O)CN2CCc3ccccc3C2)n1 [Compound 486] | 0.101 to 1 | 1 to 10 | < 0.1 |  |  |  |
| CCC(=O)N1CCN(c2nc(NC3COC3)cc(C(=O)NC[C@H](O)CN3CCc4ccccc4C3)n2)CC1 [Compound 462] | < 0.1 | < 0.1 | < 0.1 |  |  |  |
| CC(C)N1CC(Nc2cc(C(=O)NC[C@H](O)CN3CCc4ccccc4C3)ncn2)C1 [Compound 423] | 0.101 to 1 | 10 to 50 | < 0.1 |  |  |  |
| CN(C)C(=O)[C@H]1C[C@H](Nc2cc(C(=O)NC[C@H](O)CN3CCc4ccccc4C3)ncn2)C1 [Compound 507] | < 0.1 | 0.101 to 1 | < 0.1 |  |  |  |
| NS(=O)(=O)c1cccc(C(=O)NCC(O)CN2CCc3ccccc3C2)c1 (stereo not drawn) [Compound 32] |  |  |  | 0.101 to 1 | > 20 | 0.101 to 1 |
| CC(=O)N1CCC(Nc2cc(C(=O)NC[C@H](O)CN3CCc4ccccc4C3)nc(N3CCN(C)CC3)c2)CC1 [Compound 684] | < 0.1 | 0.101 to 1 | < 0.1 |  |  |  |
| CC(=O)N1CC(Nc2cc(C(=O)NC[C@H](O)CN3CCc4ccccc4C3)nc(C)n2)C1 [Compound 450] | < 0.1 | 0.101 to 1 | < 0.1 |  |  |  |
| CC(=O)N1CC(Nc2ccnc(C(=O)NC[C@H](O)CN3CCc4ccccc4C3)c2)C1 [Compound 635] | < 0.1 | < 0.1 | < 0.1 |  |  |  |
| NC(=O)CN1CCC(Nc2cc(C(=O)NC[C@H](O)CN3CCc4ccccc4C3)ncn2)CC1 [Compound 532] | < 0.1 | 0.101 to 1 | < 0.1 |  |  |  |
| O=C(NC[C@H](O)CN1CCc2ccccc2C1)c1ccnc(Nc2cccnc2)c1 [Compound 343] |  |  |  | < 0.1 | < 0.1 | < 0.1 |

| Compound | EC50 ([1]; In Cell Western methylation) [µM] | EC50 (Z-138 cell line; Cell Titer Glo) [µM] | IC50 (PRMT5/MEP50; PRMT5 biochemical assay) [µM] | EC50 [1] [µM] | EC50 (Z-138 cell line) [µM] | IC50 (PRMT5/MEP50) [µM] |
| --- | --- | --- | --- | --- | --- | --- |
| CC(C)C(=O)N1CCC(Nc2cc(C(=O)NC[C@H](O)CN3CCc4ccccc4C3)ncn2)CC1 [Compound 408] | < 0.1 | < 0.1 | < 0.1 |  |  |  |
| CS(=O)(=O)N1CCN(c2nc(NC3COC3)cc(C(=O)NC[C@H](O)CN3CCc4ccccc4C3)n2)CC1 [Compound 499] | < 0.1 | 0.101 to 1 | < 0.1 |  |  |  |
| O=C(NC[C@H](O)CN1CCc2ccccc2C1)c1cncc(NC2CCN(CC(F)(F)F)C2)c1 (stereo partly drawn) [Compound 303] |  |  |  | 0.101 to 1 | 1 to 10 | 0.101 to 1 |
| CNC(=O)[C@H]1CC[C@@H](Nc2cc(C(=O)NC[C@H](O)CN3CCc4ccccc4C3)ncn2)CC1 [Compound 597] | < 0.1 | 0.101 to 1 | < 0.1 |  |  |  |
| CNCCOc1ccc2cc(C(=O)NC[C@H](O)CN3CCc4ccccc4C3)ccc2c1 [Compound 361] |  |  |  | < 0.1 | 1 to 10 | 0.101 to 1 |
| CCS(=O)(=O)CCNc1cc(C(=O)NC[C@H](O)CN2CCc3ccccc3C2)ncn1 [Compound 641] | < 0.1 | 1 to 10 | < 0.1 |  |  |  |
| COCCN(CCOC)[C@H]1C[C@H](Nc2cc(C(=O)NC[C@H](O)CN3CCc4ccccc4C3)ncn2)C1 [Compound 561] | < 0.1 | 0.101 to 1 | < 0.1 |  |  |  |
| CC(=O)N1CC(Nc2cc(C(=O)NC[C@H](O)CN3CCc4ccccc4C3C)ncn2)C1 (stereo partly drawn) [Compound 583] | < 0.1 | 1 to 10 | < 0.1 |  |  |  |
| O=C(NCC(O)CN1CCc2ccccc2C1)c1ccccn1 (stereo not drawn) [Compound 17, N-(3-(3,4-dihydroisoquinolin-2(1H)-yl)-2-hydroxypropyl)picolinamide] |  |  |  | 0.101 to 1 | > 20 | 0.101 to 1 |
| O=C(NC[C@H](O)CN1CCc2ccccc2C1)c1cc(NC2COC2)nc(N2CCC2)n1 [Compound 526] | < 0.1 | 0.101 to 1 | < 0.1 |  |  |  |
| CC(=O)N1CCC[C@@H](Nc2cc(C(=O)NC[C@H](O)CN3CCc4ccccc4C3)ncn2)C1 [Compound 571] | < 0.1 | 1 to 10 | < 0.1 |  |  |  |
| CC(=O)N1CC(Nc2cc(C(=O)NC[C@H](O)CN3CCc4ccccc4C3)nc(C(C)(C)C)n2)C1 [Compound 546] | < 0.1 | < 0.1 | < 0.1 |  |  |  |
| COc1cc(C(=O)NC[C@H](O)CN2CCc3ccccc3C2)cc(NC2CCN(C(C)=O)CC2)n1 [Compound 627] | < 0.1 | < 0.1 | < 0.1 |  |  |  |
| CC(=O)N[C@H]1CC[C@@H](Nc2cc(C(=O)NC[C@H](O)CN3CCc4ccccc4C3)ncn2)CC1 [Compound 590] | < 0.1 | 0.101 to 1 | < 0.1 |  |  |  |
| CS(=O)(=O)CCN1CC(Nc2cc(C(=O)NC[C@H](O)CN3CCc4ccccc4C3)ncn2)C1 [Compound 580] | 0.101 to 1 | > 5 | < 0.1 |  |  |  |
| CC(C)N1CCN(c2nc(NC3CNC3)cc(C(=O)NC[C@H](O)CN3CCc4ccccc4C3)n2)CC1 [Compound 500] | 0.101 to 1 | 10 to 50 | < 0.1 |  |  |  |
| CC(O)(CNC(=O)c1cc(NC2CCNCC2)ncn1)CN1CCc2ccccc2C1 (stereo not drawn) [Compound 647] | > 1 | > 5 | 1 to 10 |  |  |  |
| CC(C)Oc1nc(NC2CNC2)cc(C(=O)NC[C@H](O)CN2CCc3ccccc3C2)n1 [Compound 467] | 0.101 to 1 | 0.101 to 1 | < 0.1 |  |  |  |
| CCN1CCN(c2nc(NC3CNC3)cc(C(=O)NC[C@H](O)CN3CCc4ccccc4C3)n2)CC1 [Compound 466] | 0.101 to 1 | 1 to 10 | < 0.1 |  |  |  |
| CC(=O)N1CC(Nc2cc(C(=O)NC[C@H](O)CN3CCc4ccccc4C3(C)C)ncn2)C1 [Compound 605] | 0.101 to 1 | > 5 | 0.101 to 1 |  |  |  |
| CS(=O)(=O)CCN1CCC(Nc2cc(C(=O)NC[C@H](O)CN3CCc4ccccc4C3)ncn2)CC1 [Compound 569] | < 0.1 | 0.101 to 1 | < 0.1 |  |  |  |
| CC(=O)N1CCC(Nc2cc(C(=O)NC[C@H](O)CN3CCc4ccccc4C3C)ncn2)CC1 (stereo partly drawn) [Compound 584] | < 0.1 | 1 to 10 | < 0.1 |  |  |  |
| O=C(NC[C@H](O)CN1CCc2ccccc2C1)c1cc(NC2COC2)nc(N2CCN(C(=O)C3CC3)CC2)n1 [Compound 498] | < 0.1 | < 0.1 | < 0.1 |  |  |  |
| Cc1ncc(NC2CCNC2)cc1C(=O)NC[C@H](O)CN1CCc2ccccc2C1 (stereo partly drawn) [Compound 310] |  |  |  | < 0.1 | 0.101 to 1 | < 0.1 |
| CO[C@H]1CC[C@@H](N(C)c2cc(C(=O)NC[C@H](O)CN3CCc4ccccc4C3)ncn2)CC1 [Compound 618] | < 0.1 | 1 to 10 | < 0.1 |  |  |  |
